The values that follow come from BindingDB's records for doi:10.1016/S0960-894X(01)80987-2 (1993).

As a reminder, the IC50 is the concentration needed to halve the response being measured.

The test is described as follows: In vitro test for inhibition of [125I]CCK binding to Cholecystokinin type B receptor from guinea pig cortical membranes was determined.
As for `Cc1cccc(NC(=O)N[C@H]2N=C(C3CCCCC3)c3ccccc3N(C)C2=O)c1` [1-((S)-5-Cyclohexyl-1-methyl-2-oxo-2,3-dihydro-1H-benzo[e][1,4]diazepin-3-yl)-3-m-tolyl-urea], the IC50 came out at 169 nM. `Cc1cccc(NC(=O)NC2N=C(C3CCC3)c3ccccc3N(C)C2=O)c1` (stereo not drawn) [1-(5-Cyclobutyl-1-methyl-2-oxo-2,3-dihydro-1H-benzo[e][1,4]diazepin-3-yl)-3-m-tolyl-urea] had an IC50 of 30 nM. With `Cc1cccc(NC(=O)NC2N=C(C3CCCC3)c3ccccc3N(C)C2=O)c1` (stereo not drawn) [1-(5-Cyclopentyl-1-methyl-2-oxo-2,3-dihydro-1H-benzo[e][1,4]diazepin-3-yl)-3-m-tolyl-urea], the IC50 is 16 nM. This IC50 is about 1.9-fold lower than that of the compound before.
